According to patent publication US10413545B2, “Imidazolin-5-one derivative useful as FASN inhibitors for the treatment of cancer” (Janssen Pharmaceutica NV, priority 2013, dated 2019):
Like-named read-outs stand apart in the source and are kept apart here.

How the values were obtained:
A2780 ovarian cells = experiment: A2780 Ovarian Cell Proliferation Assay in Lipid Reduced Medium, with and without Palmitate (MTT); assay type: cell-based; conditions: Homo sapiens, 10% lipid-reduced serum, 96 h
Method: The biological assays described below correspond to comparative assays for ovarian cell proliferation.
2500 cells were seeded in a 96-well clear well plate in 200 μL RPM11640 with 10% Fetal Calf Serum (Hyclone), and incubated at 37° C., 5% CO2, Blanks were wells without cells. The next day the culture medium was aspirated and replaced by 160 μL culture medium with 10% Lipid-Reduced Serum (LRS, Hyclone). […] After 96 h incubation, an MTT assay was performed.
2500 cells were seeded in a 96-well clear well plate in 200 μL RPM11640 with 10% Fetal Calf Serum (Hyclone), and incubated at 37° C., 5% CO2. Blanks were wells without cells. The next day the culture medium was aspirated and replaced by 160 μL culture medium with 10% Lipid-Reduced Serum (LRS, Hyclone). 20 μL test compound (at concentrations of 30 μM, 10 μM, 3 μM, 1 μM, 0.30 μM, 0.10 μM, 0.03 μM and 0.01 μM)/DMSO dilution followed by 20 μL ethanol-BSA solution were added to a final concentrations of 0.2% DMSO, 0.2% fatty-acid-free BSA, 0.25% ethanol. After 96 h incubation an MTT assay was performed.
Raw data generated by the instrument were normalized to % Controlmin values, which were calculated as: % Controlmin=100*(x−mLC)/(mHC−mLC)
where mLC and mHC were the means of the low control wells and high control wells on the plate, after manual exclusion of outliers. A plot of Controlmin versus test compound concentration was fitted to a 4-parameter logistic curve using a non-linear least squares regression method.

[1] = test system: PC-3M-Luc-C6 prostate cells; experiment: In Vitro PC-3M-Luc-C6 Prostate Cell Proliferation Assay in Lipid Reduced Medium; assay type: cell-based; conditions: Prostate cell, read-out: pIC50 PC-3M-Luc-C6 prostate cell (converted); 10% lipid reduced serum, 96 h, ATP-glow luminescence
Method: PC-3M-Luc-C6 prostate cells were obtained from Xenogen Corporation. Cells were maintained in MEM supplemented with 10% Fetal Calf Serum (FCS, Hyclone), 2 mM glutamine, 1 mM sodium pyruvate, 1% BME vitamins (available from for example, Sigma Aldrich), 0.1 mM non Essential Amino Acid and 50 μg/ml Gentamicin. The cells were passaged twice a week.
The next day 10 μl test compound/DMSO diluted in medium was added (3E-5M, 1E-5M, 3E-6M,1E-6M, 3E-7M, 1E-7M, 3E-8M, 1E-8M final concentration). Compounds were tested in duplicate. After 96 h incubation at 37° C., 5% CO2 25 μl ATP-glow mix was added. The plate was incubated for 30 min at 37° C. and luminescence was measured with the Envision.
Analysis: Determination of pIC50 Values
pIC50 values were calculated as follows. Raw data generated by the instruments were normalized to % Controlmin values, which were calculated as: % Controlmin=100*(x−mLC)/(mHC−mLC),
where mLC and mHC are the means of the low control wells and high control wells on the plate, after manual exclusion of outliers. The relation between the % Controlmin values and concentration was fitted to a 4-parameter logistic curve using a non-linear least squares regression method to determine the pIC50 value. Outlying data points were excluded manually to get a correct fit. The pIC50 corresponds to −log 10(IC50), if the IC50 is expressed in molar units (http://www.ncbi.nlm.nih.qovibooks/NBK91994). The IC50 parameter was always determined by non-linear regression, but one or more of the other parameters may have been held fixed on a relevant input value, such as 0 for the bottom values.

[2] = 25 μM palmitate added (control), read-out: pIC50 With Palmitate (converted)
[3] = no palmitate, read-out: pIC50 Without Palmitate (converted)

SMILES	IC50 (A2780 ovarian cells; [2])	IC50 (A2780 ovarian cells; [3])	IC50 [1]
Cc1cc(-c2ccc3c(c2)ncn3C)ccc1C1=NC(C)(C)C(=O)N1C[C@@H]1CCN(C(=O)C2(C)CC2)C1 [Compound 85, (R)-4,4-dimethyl-2-(2-methyl-4-(1-methyl-1H-benzo[d]imidazol-5-yl)phenyl)-1-((1-(1-methylcyclopropanecarbonyl)pyrrolidin-3-yl)methyl)-1H-imidazol-5(4H)-one]	> 10000 nM	3.89 nM	~10.7 nM
CC1(C)N=C(c2ccc(-c3ccc4[nH]ccc4c3)cc2)N(C[C@@H]2CCN(C(=O)C3CC3)C2)C1=O [Compound 1, (R)-2-(4-(1H-Indol-5-yl)phenyl)-1-((1-(cyclopropanecarbonyl)pyrrolidin-3-yl)methyl)-4,4-dimethyl-1H-imidazol-5(4H)-one]	> 10000 nM	74.1 nM	–
Cc1cc(-c2ccc(-c3cnn(C)c3)cc2)ccc1C1=NC(C)(C)C(=O)N1C[C@@H]1CCN(C(=O)C2(C)CC2)C1 [Compound 84]	4370 nM	3.31 nM	7.76 nM
Cc1cc(-c2ccc3c(c2)ncn3C)ccc1C1=NC(C)(C)C(=O)N1CC1CN(C(=O)C2(O)CC2)C1 [Compound 91, 1-((1-(1-hydroxycyclopropanecarbonyl)azetidin-3-yl)methyl)-4,4-dimethyl-2-(2-methyl-4-(1-methyl-1H-benzo[d]imidazol-5-yl)phenyl)-1H-imidazol-5(4H)-one]	> 10000 nM	129 nM	–
Cn1cnc2cc(-c3ccc(C4=NC(C)(C)C(=O)N4CC4CN(C(=O)C5(C)CC5)C4)c(F)c3)ccc21 [Compound 93, 2-(2-fluoro-4-(1-methyl-1H-benzo[d]imidazol-5-yl)phenyl)-4,4-dimethyl-1-((1-(1-methylcyclopropanecarbonyl)azetidin-3-yl)methyl)-1H-imidazol-5(4H)-one]	> 10000 nM	30.9 nM	–
CC1(C)N=C(c2ccc(-c3ccc4ncccc4c3)cc2)N(CC2CN(C(=O)C3CC3)C2)C1=O [Compound 98, 1-((1-(cyclopropanecarbonyl)azetidin-3-yl)methyl)-4,4-dimethyl-2-(4-(quinolin-6-yl)phenyl)-1H-imidazol-5(4H)-one]	> 10000 nM	> 10000 nM	–
CC1(C)N=C(c2ccc(-c3ccc4ncccc4c3)cc2)N(C[C@@H]2CCN(C(=O)C3CC3)C2)C1=O [Compound 64, (R)-1-((1-(cyclopropanecarbonyl)pyrrolidin-3-yl)methyl)-4,4-dimethyl-2-(4-(quinolin-6-yl)phenyl)-1H-imidazol-5(4H)-one]	> 10000 nM	4470 nM	–
Cn1cnc2cc(-c3ccc(C4=NC(C)(C)C(=O)N4C[C@@H]4CCN(C(=O)C5(C)CC5)C4)c(F)c3)ccc21 [Compound 90, (R)-2-(2-fluoro-4-(1-methyl-1H-benzo[d]imidazol-5-yl)phenyl)-4,4-dimethyl-1-((1-(1-methylcyclopropanecarbonyl)pyrrolidin-3-yl)methyl)-1H-imidazol-5(4H)-one]	> 10000 nM	~2.95 nM	–
Cc1cc(-c2ccc3c(c2)ncn3C)ccc1C1=NC(C)(C)C(=O)N1C[C@@H]1CCN(C(=O)C2(O)CC2)C1 [Compound 92, (R)-1-((1-(1-hydroxycyclopropanecarbonyl)pyrrolidin-3-yl)methyl)-4,4-dimethyl-2-(2-methyl-4-(1-methyl-1H-benzo[d]imidazol-5-yl)phenyl)-1H-imidazol-5(4H)-one]	> 10000 nM	~5.5 nM	–
Cn1cnc2cc(-c3ccc(C4=NC(C)(C)C(=O)N4CC4CN(C(=O)C5(O)CC5)C4)c(F)c3)ccc21 [Compound 94, 2-(2-fluoro-4-(1-methyl-1H-benzo[d]imidazol-5-yl)phenyl)-1-((1-(1-hydroxycyclopropanecarbonyl)azetidin-3-yl)methyl)-4,4-dimethyl-1H-imidazol-5(4H)-one]	> 10000 nM	100 nM	–
Cc1cc(-c2ccc3cc(C#N)ccc3c2)ccc1C1=NC(C)(C)C(=O)N1CC1CN(C(=O)C2CC2)C1 [Compound 96, 6-(4-(1-((1-(cyclopropanecarbonyl)azetidin-3-yl)methyl)-4,4-dimethyl-5-oxo-4,5-dihydro-1H-imidazol-2-yl)-3-methylphenyl)-2-naphthonitrile]	> 10000 nM	~22.4 nM	–
Cn1cnc2cc(-c3ccc(C4=NC(C)(C)C(=O)N4C[C@@H]4CCN(C(=O)C5(O)CC5)C4)c(F)c3)ccc21 [Compound 89, (R)-2-(2-fluoro-4-(1-methyl-1H-benzo[d]imidazol-5-yl)phenyl)-1-((1-(1-hydroxycyclopropanecarbonyl)pyrrolidin-3-yl)methyl)-4,4-dimethyl-1H-imidazol-5(4H)-one]	> 10000 nM	6.76 nM	–
CC1(C)N=C(c2ccc(-c3ccc4occc4c3)cc2)N(C[C@@H]2CCN(C(=O)C3(F)CC3)C2)C1=O [Compound 4, (R)-2-(4-(benzofuran-5-yl)phenyl)-1-((1-(1-fluorocyclopropanecarbonyl)pyrrolidin-3-yl)methyl)-4,4-dimethyl-1H-imidazol-5(4H)-one]	> 10000 nM	2750 nM	–
Cn1ncc2cc(-c3ccc(C4=NC(C)(C)C(=O)N4C[C@@H]4CCN(C(=O)C5(O)CC5)C4)c(F)c3)ccc21 [Compound 76, (R)-2-(2-fluoro-4-(1-methyl-1H-indazol-5-yl)phenyl)-1((1-(1-hydroxycyclopropanecarbonyl)pyrrolidin-3-yl)methyl)-4,4-dimethyl-1H-imidazol-5(4H)-one]	> 10000 nM	23.4 nM	–
CC1(C(=O)N2CC[C@@H](CN3C(=O)C(C)(C)N=C3c3ccc(-c4ccc5cc(F)ccc5c4)cc3F)C2)CC1 [Compound 75, (R)-2-(2-fluoro-4-(6-fluoronaphthalen-2-yl)phenyl)-4,4-dimethyl-1-((1-(1-methylcyclopropanecarbonyl)pyrrolidin-3-yl)methyl)-1H-imidazol-5(4H)-one]	3310 nM	11 nM	–
Cn1ncc2cc(-c3ccc(C4=NC(C)(C)C(=O)N4C[C@@H]4CCN(C(=O)C5CC5)C4)cc3)ccc21 [Compound 2, (R)-1-((1-(cyclopropanecarbonyl)pyrrolidin-3-yl)methyl)-4,4-dimethyl-2-(4-(1-methyl-1H-indazol-5-yl)phenyl)-1H-imidazol-5(4H)-one]	> 10000 nM	525 nM	–
Cn1cc(-c2ccc(-c3ccc(C4=NC(C)(C)C(=O)N4C[C@@H]4CCN(C(=O)C5(O)CC5)C4)c(F)c3)cc2)cn1 [Compound 95, (R)-2-(3-fluoro-4′-(1-methyl-1H-pyrazol-4-yl)-[1,1′-biphenyl]-4-yl)-1-((1-(1-hydroxycyclopropanecarbonyl)pyrrolidin-3-yl)methyl)-4,4-dimethyl-1H-imidazol-6(4H)-one]	> 10000 nM	~5.37 nM	–
CC1(C)N=C(c2ccc(-c3n[nH]c4ccccc34)cc2)N(CC2CN(C(=O)C3CC3)C2)C1=O [Compound 99, 2-(4-(1H-indazol-3-yl)phenyl)-1-((1-(cyclopropanecarbonyl)azetidin-3-yl)methyl)-4,4-dimethyl-1H-imidazol-5(4H)-one]	> 10000 nM	> 10000 nM	–
CC1(C)N=C(c2ccc(-c3ccc4occc4c3)cc2)N(C[C@@H]2CCN(C(=O)C3CC3)C2)C1=O [Compound 3, (R)-2-(4-(benzofuran-5-yl)phenyl)-1-((1-(cyclopropanecarbonyl)pyrrolidin-3-yl)methyl)-4,4-dimethyl-1H-imidazol-5(4H)-one]	> 10000 nM	1480 nM	–
CC1(C)N=C(c2ccc(-c3ccc4cc(F)ccc4c3)cc2F)N(C[C@@H]2CCN(C(=O)C3(O)CC3)C2)C1=O [Compound 88, (R)-2-(2-fluoro-4-(6-fluoronaphthalen-2-yl)phenyl)-1-((1-(1-hydroxycyclopropanecarbonyl)pyrrolidin-3-yl)methyl)-4,4-dimethyl-1H-imidazol-5(4H)-one]	> 10000 nM	~14.8 nM	–
